The target in one assay is D2 (Oryctolagus cuniculus, UniProt G1T1Q0). Briefly: cell-based.
A further assay has as its system anesthetized dog. The experiment in a line: anesthetized dog protocol (renal dog screen) measuring renal and cardiovascular parameters. It counts as in vivo. Set-up: decreased heart rate / arterial blood pressure: dose or concentration left out as unconfirmed.
For assay [1], the system named is spontaneously hypertensive rat (SHR). Briefly: spontaneously hypertensive rat (SHR) protocol. The format is in vivo.

Here are results for three molecules from patent publication EP0125052B1, “Dopaminergic carbostyrils and a process for preparing them” (SMITHKLINE BECKMAN CORPORATION, priority 1983, dated 1984).

As a reminder, the EC50 is the concentration needed to bring the measured effect to its halfway point.

Chain of D2 (G1T1Q0 1-443): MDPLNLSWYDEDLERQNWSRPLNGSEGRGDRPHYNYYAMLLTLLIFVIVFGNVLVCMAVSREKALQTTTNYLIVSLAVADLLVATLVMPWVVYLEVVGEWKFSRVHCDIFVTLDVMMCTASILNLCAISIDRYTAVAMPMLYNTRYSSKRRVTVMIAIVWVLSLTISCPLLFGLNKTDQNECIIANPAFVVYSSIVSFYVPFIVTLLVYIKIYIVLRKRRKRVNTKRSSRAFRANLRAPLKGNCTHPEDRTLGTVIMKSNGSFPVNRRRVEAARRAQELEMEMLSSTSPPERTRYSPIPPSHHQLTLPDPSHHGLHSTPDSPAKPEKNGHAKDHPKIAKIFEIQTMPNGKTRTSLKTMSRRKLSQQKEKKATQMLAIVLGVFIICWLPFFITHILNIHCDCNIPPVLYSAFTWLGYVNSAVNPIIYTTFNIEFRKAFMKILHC
From the text for anesthetized dog: The prior art dopaminergic agent, dopamine, is used as a positive control.

`CCCN(CCc1ccc(O)cc1)CCc1ccc(O)c2[nH]c(=O)ccc12` [5-[N-n-propyl-N-(p-hydroxyphenethyl)aminoethyl)-8-hydroxycarbostyril]: the EC50 on D2 came to 0.012 µM.

Turning to `Cl.NCCc1ccc(O)c2[nH]c(=O)ccc12` [5-aminoethyl-8-hydroxycarbostyril hydrochloride], the ED15 in the assay on anesthetized dog (Canis lupus familiaris, read-out: RVR-ED15) was 1.8 µg/kg. Also, in the assay with anesthetized dog (by infusion, renal dog screen), the arterial blood pressure is reported as -8% and the decreased heart rate is listed as 22.5%. For the same molecule, the systolic blood pressure entry in assay [1] (SHR, 25 mg/kg intraperitoneally administered) is “lowered systolic blood pressure”.

Take `CCCN(CCC)CCc1ccc(O)c2[nH]c(=O)ccc12` [5-di-n-propylaminoethyl-8-hydroxycarbostyril]: the renal blood flow entry in the assay with anesthetized dog (dog protocol, 3 and 30 pg/kg/min infusion) is reported as “increased renal blood flow”. Besides, the systolic hypertension result in assay [1] (rat test, 12.5, 25 and 50 mg/kg, i.p.) is “decreased systolic hypertension”.
